Patent publication US10654833B2, “ASK1 isoindolin-1-one inhibitors and methods of use thereof” (Hepatikos Therapeutics, LLC, priority 2018, dated 2020)
pIC50: −log10 of the molar value.

target: recombinant human ASK1 protein (Homo sapiens (Human), UniProt Q99683); assay: ASK1 kinase activity inhibition assay (radiometric 33P incorporation into MBP); type: biochemical; settings: Table 3; 20 μM MBP, 10 μM 33P-ATP
Description: ASK1 Kinase Activity Inhibition Assay
Inhibition of ASK1 kinase activity was determined radiometrically using 33P substrate incorporation (Reaction Biology Corp., Malvern, Pa.). Briefly, recombinant human ASK1 protein, 20 μM substrate (myelin basic protein (MBP)), and compound (diluted from DMSO stock to give 1% final DMSO) were incubated in Base Reaction buffer (20 mM Hepes (pH 7.5), 10 mM MgCl2, 1 mM EGTA, 0.02% Brij35, 0.02 mg/mL BSA, 0.1 mM Na3VO4, 2 mM DTT, 1% DMSO) at room temperature for 20 minutes. The reaction was initiated by addition of 10 μM 33P-ATP (specific activity […]). The reaction was then allowed to proceed for 2 hours at room temperature. Upon reaction termination, the mixture was spotted on P81 exchange paper and kinase activity by incorporation of 33P into MBP substrate was detected by filter-binding method.

Chain of recombinant human ASK1 protein (Q99683 whole entry): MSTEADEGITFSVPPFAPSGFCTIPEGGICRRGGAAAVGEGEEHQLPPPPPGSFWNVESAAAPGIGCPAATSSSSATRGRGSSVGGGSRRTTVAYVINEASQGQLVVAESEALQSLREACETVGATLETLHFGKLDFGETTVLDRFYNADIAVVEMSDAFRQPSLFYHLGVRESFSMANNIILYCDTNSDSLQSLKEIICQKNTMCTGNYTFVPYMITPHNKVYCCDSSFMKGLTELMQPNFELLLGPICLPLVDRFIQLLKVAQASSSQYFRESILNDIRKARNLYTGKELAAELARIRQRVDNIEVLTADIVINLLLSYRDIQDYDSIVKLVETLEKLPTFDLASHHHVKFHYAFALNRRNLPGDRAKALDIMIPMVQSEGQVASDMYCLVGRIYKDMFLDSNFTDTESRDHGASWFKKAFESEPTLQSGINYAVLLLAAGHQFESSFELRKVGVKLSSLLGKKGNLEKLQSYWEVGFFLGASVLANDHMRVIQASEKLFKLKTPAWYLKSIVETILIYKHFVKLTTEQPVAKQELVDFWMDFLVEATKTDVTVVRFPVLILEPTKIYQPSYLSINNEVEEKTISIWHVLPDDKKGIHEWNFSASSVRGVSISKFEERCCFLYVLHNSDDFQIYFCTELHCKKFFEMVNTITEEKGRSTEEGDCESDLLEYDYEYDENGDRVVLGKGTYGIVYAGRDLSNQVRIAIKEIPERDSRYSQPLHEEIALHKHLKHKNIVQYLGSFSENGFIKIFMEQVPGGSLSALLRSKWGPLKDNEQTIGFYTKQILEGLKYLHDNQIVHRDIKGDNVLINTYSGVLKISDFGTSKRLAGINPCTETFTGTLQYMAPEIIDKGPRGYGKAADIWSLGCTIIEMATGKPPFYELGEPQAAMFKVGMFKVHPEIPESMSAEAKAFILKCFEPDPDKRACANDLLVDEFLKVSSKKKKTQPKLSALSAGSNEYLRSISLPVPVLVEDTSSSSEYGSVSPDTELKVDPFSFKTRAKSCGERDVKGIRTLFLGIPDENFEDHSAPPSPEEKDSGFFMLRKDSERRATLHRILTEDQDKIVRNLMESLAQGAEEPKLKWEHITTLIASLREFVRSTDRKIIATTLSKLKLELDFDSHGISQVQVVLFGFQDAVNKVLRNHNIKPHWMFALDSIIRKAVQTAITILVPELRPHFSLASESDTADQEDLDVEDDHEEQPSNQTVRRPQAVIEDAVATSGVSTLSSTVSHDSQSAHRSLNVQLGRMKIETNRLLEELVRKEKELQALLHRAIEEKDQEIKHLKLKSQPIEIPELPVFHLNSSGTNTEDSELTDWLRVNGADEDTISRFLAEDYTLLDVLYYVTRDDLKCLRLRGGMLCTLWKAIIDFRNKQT

Compound | pIC50
COc1ccc(C(=O)O)cc1-c1ccc2c(c1)C(=O)N(c1cccc(-c3nncn3C(C)C)n1)C2 [Compound 8, 3-(2-(6-(4-Isopropyl-4H-1,2,4-triazol-3-yl)pyridin-2-yl)-3-oxoisoindolin-5-yl)-4-methoxybenzoic Acid] | 7.97
CC(C)n1cnnc1-c1cccc(N2Cc3ccc(-c4ccc5c(c4)COC5=O)cc3C2=O)n1 [Compound 82, 2-(6-(4-Isopropyl-4H-1,2,4-triazol-3-yl)pyridin-2-yl)-6-(1-oxo-1,3-dihydroisobenzofuran-5-yl)isoindolin-1-one] | 8.49
CCc1sc(C(=O)O)cc1-c1ccc2c(c1)C(=O)N(c1cccc(-c3nncn3C(C)C)n1)C2 [Compound 62, 5-Ethyl-4-(2-(6-(4-isopropyl-4H-1,2,4-triazol-3-yl)pyridin-2-yl)-3-oxoisoindolin-5-yl)thiophene-2-carboxylic Acid] | 8.17
CC(C)n1cnnc1-c1cccc(N2Cc3ccc(-c4cncc(C(=O)O)c4)cc3C2=O)n1 [Compound 63, 5-(2-(6-(4-Isopropyl-4H-1,2,4-triazol-3-yl)pyridin-2-yl)-3-oxoisoindolin-5-yl)nicotinic Acid] | 8.29
CC(C)n1cnnc1-c1cccc(N2Cc3ccc(-c4ccc(-n5ncc(C(=O)O)c5N)cc4)cc3C2=O)n1 [Compound 120, 5-Amino-1-(4-(2-(6-(4-isopropyl-4H-1,2,4-triazol-3-yl)pyridin-2-yl)-3-oxoisoindolin-5-yl)phenyl)-1H-pyrazole-4-carboxylic Acid] | 8.09
CC(C)n1cnnc1-c1cccc(N2Cc3ccc(-c4cccc(C(=O)O)c4F)cc3C2=O)n1 [Compound 2, 2-Fluoro-3-(2-(6-(4-isopropyl-4H-1,2,4-triazol-3-yl)pyridin-2-yl)-3-oxoisoindolin-5-yl) Benzoic Acid] | 8.37
Cc1cc(C(=O)O)cc(-c2ccc3c(c2)C(=O)N(c2cccc(-c4nncn4C(C)C)n2)C3)n1 [Compound 115, 2-(2-(6-(4-Isopropyl-4H-1,2,4-triazol-3-yl)pyridin-2-yl)-3-oxoisoindolin-5-yl)-6-methylisonicotinic Acid] | 8.19
CC(C)n1cnnc1-c1cccc(N2Cc3ccc(-c4ccc(CC(=O)O)cc4)cc3C2=O)n1 [Compound 84, 2-(4-(2-(6-(4-Isopropy-4H-1,2,4-triazol-3-yl)pyridin-2-yl)-3-oxoisoindolin-5-yl)phenyl)acetic Acid] | 8.37
Cc1c(F)cc(C(=O)O)cc1-c1ccc2c(c1)C(=O)N(c1cccc(-c3nncn3C(C)C)n1)C2 [Compound 98, 3-Fluoro-5-(2-(6-(4-isopropyl-4H-1,2,4-triazol-3-yl)pyridin-2-yl)-3-oxoisoindolin-5-yl)-4-methylbenzoic Acid] | 8.31
COC(=O)C(C)(C)c1ccc(-c2ccc3c(c2)C(=O)N(c2cccc(-c4nncn4C(C)C)n2)C3)cc1 [Compound 88, Methyl 2-(4-(2-(6-(4-isopropyl-4H-1,2,4-triazol-3-yl)pyridin-2-yl)-3-oxoisoindolin-5-yl)phenyl)-2-methylpropanoate] | 8.31
CC(C(=O)O)c1ccc(-c2ccc3c(c2)C(=O)N(c2cccc(-c4nncn4C(C)C)n2)C3)cc1 (stereo not drawn) [Compound 85, 2-(4-(2-(6-(4-Isopropyl-4H-1,2,4-triazol-3-yl)pyridin-2-yl)-3-oxoisoindolin-5-yl)phenyl)propanoic Acid] | 8.44
Cc1cc(F)c(C(=O)O)cc1-c1ccc2c(c1)C(=O)N(c1cccc(-c3nncn3C(C)C)n1)C2 [Compound 79, 2-Fluoro-5-(2-(6-(4-isopropyl-4H-1,2,4-triazol-3-yl)pyridin-2-yl)-3-oxoisoindolin-5-yl)-4-methylbenzoic Acid] | 8.34
CC(C)n1cnnc1-c1cccc(N2Cc3ccc(-c4cc(-c5nn[nH]n5)ccc4F)cc3C2=O)n1 [Compound 111, 6-(2-Fluoro-5-(2H-tetrazol-5-yl)phenyl)-2-(6-(4-isopropyl-4H-1,2,4-triazol-3-yl)pyridin-2-yl)isoindolin-1-one] | 8.19
CC(C)n1cnnc1-c1cccc(N2Cc3ccc(-c4ccc(CO)c(C(=O)O)c4)cc3C2=O)n1 [Compound 35, 2-(Hydroxymethyl)-5-(2-(6-(4-isopropyl-4H-1,2,4-triazol-3-yl)pyridin-2-yl)-3-oxoisoindolin-5-yl)benzoic Acid] | 8.40
CC(C)n1cnnc1-c1cccc(N2Cc3ccc([C@H]4CC[C@H](C(=O)O)CC4)cc3C2=O)n1 [Compound 126, trans-4-(2-(6-(4-Isopropyl-4H-1,2,4-triazol-3-yl)pyridin-2-yl)-3-oxoisoindolin-5-yl)cyclohexane-1-carboxylic acid] | 7.87
O=C(O)C1CCCN(c2ccc3c(c2)C(=O)N(c2cccc(-c4nncn4C4CC4)n2)C3)C1 (stereo not drawn) [Compound 131, 1-(2-(6-(4-Cyclopropyl-4H-1,2,4-triazol-3-yl)pyridin-2-yl)-3-oxoisoindolin-5-yl)piperidine-3-carboxylic Acid] | 7.66
6-(2-(6-(4-Isopropyl-4H-1,2,4-triazol-3-yl)pyridin-2-yl)-3-oxoisoindolin-5-yl)pyridazine-4-carboxylic Acid [Compound 119] | 8.28
CC(C)(C(=O)O)c1cccc(-c2ccc3c(c2)C(=O)N(c2cccc(-c4nncn4C4CC4)n2)C3)c1 [Compound 103, 2-(3-(2-(6-(4-Cyclopropyl-4H-1,2,4-triazol-3-yl)pyridin-2-yl)-3-oxoisoindolin-5-yl)phenyl)-2-methylpropanoic Acid] | 7.90
O=C(O)c1ccc(F)c(-c2ccc3c(c2)C(=O)N(c2cccc(-c4nncn4C4CC4)n2)C3)c1 [Compound 93, 3-(2-(6-(4-Cyclopropyl-4H-1,2,4-triazol-3-yl)pyridin-2-yl)-3-oxoisoindolin-5-yl)-4-fluorobenzoic Acid] | 7.91
CC(C)n1cnnc1-c1cccc(N2Cc3ccc(-c4ccc(CCC(=O)O)cc4)cc3C2=O)n1 [Compound 90, 3-(4-(2-(6-(4-Isopropyl-4H-1,2,4-triazol-3-yl)pyridin-2-yl)-3-oxoisoindolin-5-yl)phenyl)propanoic Acid] | 8.36
Cc1cc(C(=O)O)ccc1-c1ccc2c(c1)C(=O)N(c1cccc(-c3nncn3C(C)C)n1)C2 [Compound 74, 4-(2-(6-(4-Isopropyl-4H-1,2,4-triazol-3-yl)pyridin-2-yl)-3-oxoisoindolin-5-yl)-3-methylbenzoic Acid] | 8.24
CC(C)n1cnnc1-c1cccc(N2Cc3ccc(-c4ccc(O)c(C(=O)O)c4)cc3C2=O)n1 [Compound 64, 2-Hydroxy-5-(2-(6-(4-isopropyl-4H-1,2,4-triazol-3-yl)pyridin-2-yl)-3-oxoisoindolin-5-yl)benzoic Acid] | 8.15
CC(C)n1cnnc1-c1cccc(N2Cc3ccc([C@H]4CC[C@@H](C(=O)O)CC4)cc3C2=O)n1 [Compound 127, cis-4-(2-(6-(4-Isopropyl-4H-1,2,4-triazol-3-yl)pyridin-2-yl)-3-oxoisoindolin-5-yl)cyclohexane-1-carboxylic acid] | 7.84
Cc1ccc(-c2ccc3c(c2)C(=O)N(c2cccc(-c4nncn4C(C)C)n2)C3)cc1C(=O)O [Compound 9, 5-(2-(6-(4-Isopropyl-4H-1,2,4-triazol-3-yl)pyridin-2-yl)-3-oxoisoindolin-5-yl)-2-methylbenzoic acid] | 8.25
